From ChEMBL document CHEMBL4184257, “Design, synthesis and antibacterial evaluation of honokiol derivatives” (2018)
In brackets after ≈: the same amount, converted by molar mass.

Columns and labels:
Assay type in all cases: functional
[1] = test system: Staphylococcus epidermidis; assay: Antibacterial activity against Staphylococcus albus AS1.3374 incubated at 37 degC for 20 hrs by agar dilution method; conditions: AS1.3374, 20 h
Staphylococcus aureus [2] = assay: Antibacterial activity against Staphylococcus aureus ATCC 33591 incubated at 37 degC for 20 hrs by agar dilution method; conditions: ATCC 33591, 20 h
Pseudomonas aeruginosa [3] = assay: Antibacterial activity against Pseudomonas aeruginosa ATCC 9027 incubated at 37 degC for 20 hrs by agar dilution method; conditions: ATCC 9027, 20 h
Staphylococcus aureus [4] = assay: Antibacterial activity against Staphylococcus aureus ATCC 6538 incubated at 37 degC for 20 hrs by agar dilution method; conditions: ATCC 6538, 20 h
Staphylococcus aureus [5] = assay: Antibacterial activity against Staphylococcus aureus ATCC 43300 incubated at 37 degC for 20 hrs by agar dilution method; conditions: ATCC 43300, 20 h
Staphylococcus aureus [6] = assay: Antibacterial activity against Staphylococcus aureus ATCC 25923 incubated at 37 degC for 20 hrs by standard broth microdilution method; conditions: ATCC 25923, 20 h
Enterococcus faecalis [7] = assay: Antibacterial activity against Enterococcus faecalis ATCC 33186 incubated at 37 degC for 20 hrs by agar dilution method; conditions: ATCC 33186, 20 h
Klebsiella pneumoniae [8] = assay: Antibacterial activity against Klebsiella pneumoniae ATCC 4352 incubated at 37 degC for 20 hrs by agar dilution method; conditions: ATCC 4352, 20 h
Pseudomonas aeruginosa [9] = assay: Antibacterial activity against Pseudomonas aeruginosa ATCC 27853 incubated at 37 degC for 20 hrs by agar dilution method; conditions: ATCC 27853, 20 h
Pseudomonas aeruginosa [10] = assay: Antibacterial activity against Pseudomonas aeruginosa CMCC 10104 incubated at 37 degC for 20 hrs by agar dilution method; conditions: CMCC 10104, 20 h
Staphylococcus aureus [11] = assay: Antibacterial activity against Staphylococcus aureus ATCC 29213 incubated at 37 degC for 20 hrs by agar dilution method; conditions: ATCC 29213, 20 h
Klebsiella pneumoniae [12] = assay: Antibacterial activity against Klebsiella pneumoniae CMCC 46117 incubated at 37 degC for 20 hrs by agar dilution method; conditions: CMCC 46117, 20 h
Enterococcus faecalis [13] = assay: Antibacterial activity against Enterococcus faecalis ATCC 35667 incubated at 37 degC for 20 hrs by agar dilution method; conditions: ATCC 35667, 20 h
Escherichia coli = assay: Antibacterial activity against Escherichia coli ATCC 25922 incubated at 37 degC for 20 hrs by standard broth microdilution method; conditions: ATCC 25922, 20 h
Klebsiella pneumoniae [14] = assay: Antibacterial activity against Klebsiella pneumoniae ATCC 700603 incubated at 37 degC for 20 hrs by agar dilution method; conditions: ATCC 700603, 20 h
[15] = test system: Staphylococcus epidermidis; assay: Antibacterial activity against Staphylococcus epidermidis ATCC 12228 incubated at 37 degC for 20 hrs by agar dilution method; conditions: ATCC 12228, 20 h
Streptococcus pyogenes = assay: Antibacterial activity against Streptococcus pyogenes ATCC 19615 incubated at 37 degC for 20 hrs by agar dilution method; conditions: ATCC 19615, 20 h
Staphylococcus aureus [16] = assay: Antibacterial activity against Staphylococcus aureus CMCC 26003 incubated at 37 degC for 20 hrs by agar dilution method; conditions: CMCC 26003, 20 h
Streptococcus mutans = assay: Antibacterial activity against Streptococcus mutans
Staphylococcus aureus [17] = assay: Antibacterial activity against Staphylococcus aureus
Candida albicans = assay: Antimicrobial activity against Candida albicans

C=CCc1cc(CN2CCC(N3CCCC(N)C3)CC2)c(O)c(-c2ccc(O)c(CC=C)c2)c1 (centres undefined)
MIC [1]: 16 µg/mL (≈ 34.7 µM)
MIC (Staphylococcus aureus [2]): 16 µg/mL (≈ 34.7 µM)
MIC (Pseudomonas aeruginosa [3]): > 256 µg/mL
MIC (Staphylococcus aureus [4]): 16 µg/mL (≈ 34.7 µM)
MIC (Staphylococcus aureus [5]): 16 µg/mL (≈ 34.7 µM)
MIC (Staphylococcus aureus [6]): 16 µg/mL (≈ 34.7 µM)
MIC90 (Staphylococcus aureus [6]): 16 µg/mL (≈ 34.7 µM)
MIC (Enterococcus faecalis [7]): 16 µg/mL (≈ 34.7 µM)
MIC (Klebsiella pneumoniae [8]): 16 µg/mL (≈ 34.7 µM)
MIC (Pseudomonas aeruginosa [9]): > 256 µg/mL
MIC (Pseudomonas aeruginosa [10]): 64 µg/mL (≈ 139 µM)
MIC (Staphylococcus aureus [11]): 16 µg/mL (≈ 34.7 µM)
MIC (Klebsiella pneumoniae [12]): 32 µg/mL (≈ 69.3 µM)
MIC (Enterococcus faecalis [13]): 16 µg/mL (≈ 34.7 µM)
MIC (Escherichia coli): 128 µg/mL (≈ 277 µM)
MIC90 (Escherichia coli): 128 µg/mL (≈ 277 µM)
MIC (Klebsiella pneumoniae [14]): > 256 µg/mL
MIC [15]: 16 µg/mL (≈ 34.7 µM)
MIC (Streptococcus pyogenes): 32 µg/mL (≈ 69.3 µM)
MIC (Staphylococcus aureus [16]): 16 µg/mL (≈ 34.7 µM)

C=CCc1ccc(O)c(-c2ccc(O)c(CC=C)c2)c1 [HONOKIOL]
MIC [1]: 16 µg/mL (≈ 60.1 µM)
MIC (Staphylococcus aureus [2]): 16 µg/mL (≈ 60.1 µM)
MIC (Pseudomonas aeruginosa [3]): > 256 µg/mL
MIC (Staphylococcus aureus [4]): 16 µg/mL (≈ 60.1 µM)
MIC (Staphylococcus aureus [5]): 16 µg/mL (≈ 60.1 µM)
MIC90 (Staphylococcus aureus [6]): 16 µg/mL (≈ 60.1 µM)
MIC (Streptococcus mutans): 10 µg/mL (≈ 37.5 µM)
MIC (Staphylococcus aureus [17]): 50 µg/mL (≈ 188 µM)
MIC (Enterococcus faecalis [7]): 32 µg/mL (≈ 120 µM)
MIC (Candida albicans): 32 µg/mL (≈ 120 µM)
MIC (Klebsiella pneumoniae [8]): 32 µg/mL (≈ 120 µM)
MIC (Pseudomonas aeruginosa [9]): > 256 µg/mL
MIC (Pseudomonas aeruginosa [10]): > 256 µg/mL
MIC (Staphylococcus aureus [11]): 16 µg/mL (≈ 60.1 µM)
MIC (Klebsiella pneumoniae [12]): 32 µg/mL (≈ 120 µM)
MIC (Enterococcus faecalis [13]): 32 µg/mL (≈ 120 µM)
MIC (Escherichia coli): > 256 µg/mL
MIC90 (Escherichia coli): > 256 µg/mL
MIC (Klebsiella pneumoniae [14]): > 256 µg/mL
MIC [15]: 16 µg/mL (≈ 60.1 µM)
MIC (Streptococcus pyogenes): 8 µg/mL (≈ 30 µM)
MIC (Staphylococcus aureus [16]): 16 µg/mL (≈ 60.1 µM)

C=CCc1cc(CN2CCC(NC(=O)OC(C)(C)C)CC2)c(O)c(-c2ccc(O)c(CC=C)c2)c1
MIC90 (Staphylococcus aureus [6]): > 256 µg/mL
MIC90 (Escherichia coli): > 256 µg/mL

C=CCc1cc(CN2CCCC(NC(=O)OC(C)(C)C)C2)c(O)c(-c2ccc(O)c(CC=C)c2)c1 (centres undefined)
MIC90 (Staphylococcus aureus [6]): > 256 µg/mL
MIC90 (Escherichia coli): > 256 µg/mL

C=CCc1cc(CN2CCCC(C)C2)c(O)c(-c2ccc(O)c(CC=C)c2)c1 (centres undefined)
MIC90 (Staphylococcus aureus [6]): > 256 µg/mL
MIC90 (Escherichia coli): > 256 µg/mL

C=CCc1cc(CN2CCN(C(=O)OC(C)(C)C)CC2)c(O)c(-c2ccc(O)c(CC=C)c2)c1
MIC90 (Staphylococcus aureus [6]): > 256 µg/mL
MIC90 (Escherichia coli): > 256 µg/mL

C=CCc1cc(CN2CCN(CCOC)CC2)c(O)c(-c2ccc(O)c(CC=C)c2)c1
MIC90 (Staphylococcus aureus [6]): > 256 µg/mL
MIC90 (Escherichia coli): > 256 µg/mL

C=CCc1cc(CN2CCN(C(C)=O)CC2)c(O)c(-c2ccc(O)c(CC=C)c2)c1
MIC90 (Staphylococcus aureus [6]): > 256 µg/mL
MIC90 (Escherichia coli): > 256 µg/mL
